Experiments:
[1] = test system: SIRT1; test: SIRT1 ELISA in lung tissue homogenate of aged mice; type: in vivo, mouse; conditions: aged C57BL/6 mice, 25 mg/kg p.o. each substance, 90 days
Description: The experiments were performed in old C57b1/6 mice (28-30 weeks). Table 1 discloses the groups of mice used for the experimentation. C57BL/6 mice were bred and naturally aged in a pathogen-free colony. Mice were group-housed six per cage for the treatment regimen and maintained on a 12-hr light-dark schedule with ad libitum access to food and water. All experiments were designed according to the principles of animal use for gerontological research (Miller, R. A., & Nadon, N. L. (2000). Principles of animal use for gerontological research. Journals of Gerontology. Series A, Biological Sciences and Medical Sciences, 55, B117-B123) [table] The above test substances were administered to the mice for a period of 90 days. Rapamycin was used as a positive control. After 90 days of administration experiments were performed to assess the respiratory muscle function, anatomical changes, cellular senescence and immunological changes. A number of cellular mechanisms and alterations constitute the hallmarks of cellular senescence. These include a stable cell cycle arrest chromatin alteration & reorganization; Inhibition of Sirt-1. Inhibition of AMPK and Dysregulation of mTOR. Silencing information regulator 2 related enzyme 1 (sirtuin1, SIRT1) is an NAD+-dependent deacetylase, which is involved in the regulation of cellular senescence and aging. The expression of SIRT1 is diminished with aging in mice. […]

[2] = test system: old C57b1/6 mice; test: Tidal volume by whole-body plethysmography in aged mice; type: in vivo, mouse; conditions: aged C57BL/6 mice, 25 mg/kg p.o. each substance, 90 days
Description: The experiments were performed in old C57b1/6 mice (28-30 weeks). Table 1 discloses the groups of mice used for the experimentation. C57BL/6 mice were bred and naturally aged in a pathogen-free colony. Mice were group-housed six per cage for the treatment regimen and maintained on a 12-hr light-dark schedule with ad libitum access to food and water. All experiments were designed according to the principles of animal use for gerontological research (Miller, R. A., & Nadon, N. L. (2000). Principles of animal use for gerontological research. Journals of Gerontology. Series A, Biological Sciences and Medical Sciences, 55, B117-B123) [table] The above test substances were administered to the mice for a period of 90 days. Rapamycin was used as a positive control. […] The respiratory muscle function in the study animals was assessed by estimating the Tidal Volume, Minute ventilation, Transdiaphragmatic pressure ([…]) and Respiratory rate. […] In the present study, ventilatory parameters were measured in awake mice during eupnoea (spontaneous breathing of room air) using a whole-body plethysmography system. […] Recordings were taken after 10 min of acclimatization and recorded for one hour. Recorded parameters included tidal volume and minute ventilation

Structure (SMILES): O=C(/C=C/c1ccc(O)c(O)c1)O[C@H](Cc1ccc(O)c(O)c1)C(=O)O [Rosmarinic acid]
- expression of SIRT1 [1]: increased
- tidal volume ([2]; versus old mice control): increased
- tidal volume, comparison between treatment groups ([2]; Rapamycin 8 mg/kg p.o. positive control): better than control, and Rapamycin

— patent US20250090614A1, “COMPOSITIONS AND METHODS FOR IMPROVING LUNG FUNCTION” (priority 2023, published 2025)
